Measured values published in ChEMBL document CHEMBL5260804 (ACS Med Chem Lett, 2017).

Key:
Influenza A virus = assay: Antiviral activity against amantadine-sensitive influenza A virus A/WSN/33-M2-N31S (H1N1) infected in MDCK cells assessed as inhibition of virus-induced cytopathic effect incubated for 48 hrs by crystal violet/neutral red staining based assay; type: functional, organism-based
Oocyte [1] = assay: Inhibition of influenza A virus A/WSN/33-M2-N31S (H1N1) M2 transmembrane domain V28I mutant expressed in Xenopus laevis oocytes assessed as inhibition of channel current at 100 uM measured after 5 mins by two-electrode voltage clamp assay relative to control; type: cell-based
Oocyte [2] = assay: Inhibition of influenza A virus A/WSN/33-M2-N31S (H1N1) M2 transmembrane domain V28I mutant expressed in Xenopus laevis oocytes assessed as inhibition of channel current at 100 uM measured after 2 mins by two-electrode voltage clamp assay relative to control; type: cell-based

Row | Structure (SMILES) | IC50 (Influenza A virus) [nM] | inhibition (Oocyte [1]) [%] | inhibition (Oocyte [2]) [%]
1 | NC12CC3CC(CC(C3)C1)C2 [AMANTADINE] | 480 | – | –
2 | C[C@@H](N)C12CC3CC(CC(C3)C1)C2 | 40 | 90 | 71
3 | CC(C)(N)C12CC3CC(CC(C3)C1)C2 | 30 | 80 | 56
4 | C[C@H](N)C12CC3CC(CC(C3)C1)C2 | 20 | 92 | 78
5 | CC(N)C12CC3CC(CC(C3)C1)C2 (racemic) [RIMANTADINE] | 40 | 93 | 84
